In US20050101595A1, “N-containing cycloalkyl-substituted amino-thiazole derivatives and pharmaceutical compositions for inhibiting cell proliferation and methods for their use” (PFIZER INC., priority 2003, published 2005):

Experiments:
CDK2/Cyclin A = CDK2/Cyclin A (Homo sapiens, UniProt P24941); assay: Inhibition of CDK2/Cyclin A Retinoblastoma Kinase Activity; format: biochemical; conditions: 0.03 μM compound, Table 4
How it was run: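 Baculovirus-expressed CDK2 complexed with proteolyzed cyclin A (10 or 19 nM), Rb fragment substrate, 25 μM [32P/33P]ATP, HEPES pH 7.4, 30 °C for 60 or 75 min under initial-rate conditions. Filter capture and phosphorimager readout; apparent Ki fitted to competitive or tight-binding competitive inhibition.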

[1] = target: human CDK4 and genetically truncated (1-264) cyclin D3 (Homo sapiens, UniProt P11802); assay: Inhibition of CDK4/Cyclin D Retinoblastoma Kinase Activity; format: biochemical; conditions: 0.03 μM compound, Table 4
Chain of human CDK4 and genetically truncated (1-264) cyclin D3 (P11802 whole entry, the tested form may be a part): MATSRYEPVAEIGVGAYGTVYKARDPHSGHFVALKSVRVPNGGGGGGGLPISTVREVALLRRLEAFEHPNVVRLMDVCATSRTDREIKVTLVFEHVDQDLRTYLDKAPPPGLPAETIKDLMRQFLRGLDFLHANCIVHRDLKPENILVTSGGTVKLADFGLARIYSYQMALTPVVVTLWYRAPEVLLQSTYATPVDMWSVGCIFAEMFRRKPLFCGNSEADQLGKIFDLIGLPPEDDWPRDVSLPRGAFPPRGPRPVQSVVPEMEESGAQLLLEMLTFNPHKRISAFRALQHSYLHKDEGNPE
Chain of human CDK4 and genetically truncated (1-264) cyclin D3 (P30281 1-264 partner): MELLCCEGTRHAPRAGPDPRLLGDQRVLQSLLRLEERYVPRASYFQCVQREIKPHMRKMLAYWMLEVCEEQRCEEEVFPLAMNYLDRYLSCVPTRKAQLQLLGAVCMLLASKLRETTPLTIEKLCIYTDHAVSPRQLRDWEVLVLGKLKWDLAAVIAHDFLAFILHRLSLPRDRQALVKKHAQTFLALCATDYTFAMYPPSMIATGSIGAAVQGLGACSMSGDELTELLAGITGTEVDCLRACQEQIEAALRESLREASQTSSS
How it was run: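 Human CDK4/truncated cyclin D3 (1-264) complex from baculovirus-infected insect cells, 5 nM, phosphorylating Rb fragment (residues 386-928, His-tagged) with 25 μM [32/33P]ATP in HEPES pH 7.4, MgCl2, 2% DMSO at 30° C. for 20 min (60 min for tight binders). Filter-captured radioactivity by phosphorimager; apparent Ki from competitive or tight-binding fits.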

HCT-116 cell line = assay: Inhibition of cell growth, tetrazolium salt (MTT) assay; format: cell-based; conditions: HCT-116, Table 4; for HCT-116 % Inhibition at 0.1 μM: 0.1 μM compound; for HCT-116 % Inhibition at 0.25 μM: 0.25 μM compound
How it was run: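 Cells in McCoy's 5A medium were left 4 h, then given graded compound concentrations in 0.5% (v/v) DMSO and incubated three to five days at 37° C (5% CO2). MTT was added to 0.2 mg/mL for 4 h more; DMSO-solubilized formazan was read at 540 nm against 0.5% DMSO-only controls.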

Compound	CDK2 % Inhibition at 0.03 μM (CDK2/Cyclin A) [%]	CDK4 % Inhibition at 0.03 μM [1] [%]	CDK2 % Inhibition at 0.03 μM (CDK2/Cyclin A; 0.03 µM) [%]	CDK4 % Inhibition at 0.03 μM ([1]; 0.03 µM) [%]	HCT-116 % Inhibition at 0.1 μM (HCT-116 cell line) [%]	HCT-116 % Inhibition at 0.25 μM (HCT-116 cell line) [%]	HCT-116 % Inhibition at 0.25 μM (HCT-116 cell line; 0.25 µM) [%]
CCCCOc1ccc(C(=O)N2CCC(Nc3nc(N)c(C(=O)c4c(F)cccc4F)s3)CC2)cc1 [Example Q29]	21	60	–	–	7	50	–
CCCCCCOc1ccc(C(=O)N2CCC(Nc3nc(N)c(C(=O)c4c(F)cccc4F)s3)CC2)cc1 [Example Q30]	–	–	−4	42	8	–	47
CCCCCCOc1ccc(C(=O)N2CCC(Nc3nc(N)c(C(=O)c4c(F)cccc4F)s3)CC2)cc1 [Example Q31]	–	–	−2	35	8	–	41
Nc1nc(NC2CCN(C(=O)c3ccc(-c4ccccc4)cc3)CC2)sc1C(=O)c1c(F)cccc1F [Example Q32]	−11	15	–	–	13	54	–
CCCCCc1ccc(C(=O)N2CCC(Nc3nc(N)c(C(=O)c4c(F)cccc4F)s3)CC2)cc1 [Example Q37]	12	45	–	–	0	31	–
COC(=O)C(=O)N1CCC(Nc2nc(N)c(C(=O)c3c(F)cccc3F)s2)CC1 [Example Q38]	−12	16	–	–	0	21	–

Second part, led by results:

CDK2 % Inhibition at 0.03 μM (CDK2/Cyclin A) [%]	CDK4 % Inhibition at 0.03 μM [1] [%]	CDK2 % Inhibition at 0.03 μM (CDK2/Cyclin A; 0.03 µM) [%]	CDK4 % Inhibition at 0.03 μM ([1]; 0.03 µM) [%]	Compound	HCT-116 % Inhibition at 0.1 μM (HCT-116 cell line) [%]	HCT-116 % Inhibition at 0.25 μM (HCT-116 cell line) [%]	HCT-116 % Inhibition at 0.25 μM (HCT-116 cell line; 0.25 µM) [%]
31	65	–	–	Nc1nc(NC2CCN(C(=O)c3cccc(C(F)(F)F)c3)CC2)sc1C(=O)c1c(F)cccc1F [Example Q24]	36	71	–
30	60	–	–	Cc1cccc(C(=O)N2CCC(Nc3nc(N)c(C(=O)c4c(F)cccc4F)s3)CC2)c1 [Example Q25]	31	85	–
18	60	–	–	Nc1nc(NC2CCN(C(=O)c3ccc(F)cc3)CC2)sc1C(=O)c1c(F)cccc1F [Example Q26]	3	42	–
32	76	–	–	Nc1nc(NC2CCN(C(=O)c3ccc(Cl)cc3)CC2)sc1C(=O)c1c(F)cccc1F [Example Q27]	4	40	–
53	82	–	–	COc1ccc(C(=O)N2CCC(Nc3nc(N)c(C(=O)c4c(F)cccc4F)s3)CC2)cc1 [Example Q28]	6	41	–
23	65	–	–	Nc1nc(NC2CCN(C(=O)c3ccc(C(F)(F)F)cc3)CC2)sc1C(=O)c1c(F)cccc1F [Example Q33]	0	16	–
28	56	–	–	CC(C)(C)c1ccc(C(=O)N2CCC(Nc3nc(N)c(C(=O)c4c(F)cccc4F)s3)CC2)cc1 [Example Q34]	1	27	–
35	64	–	–	Cc1ccc(C(=O)N2CCC(Nc3nc(N)c(C(=O)c4c(F)cccc4F)s3)CC2)cc1 [Example Q35]	3	21	–
16	45	–	–	CCCCc1ccc(C(=O)N2CCC(Nc3nc(N)c(C(=O)c4c(F)cccc4F)s3)CC2)cc1 [Example Q36]	0.49	31	–
